# Test system: senescent human IMR-90 fibroblast cells
# Type: cell-based
# Protocol: Human IMR-90, BJ, WI-38 fibroblasts and REC epithelial cells were obtained from ATCC and grown at 5% oxygen. IMR-90 and REC cells were maintained in DMEM medium comprising 100 units per ml of penicillin, […] of streptomycin and 10% fetal bovine serum. BJ and WI-38 cells were maintained in EMEM medium comprising 100 units per ml of penicillin, […] of streptomycin, 10% fetal bovine serum, 1% Pyruvate, 1% L-Glutamine, mLFs were isolated according to standard procedures [Seluanov, A., et al. J Vis Exp (2010) (44):2033] and grown at 5% oxygen. Cells were maintained in EMEM medium comprising 100 units per ml of penicillin, […] of streptomycin and 15% fetal bovine serum.
# DNA damage induced senescence (DIS) was induced by etoposide treatment (E1383, Sigma) at a concentration of […] for IMR-90, BJ, and WI-38, 16 μM for mLF and 12.5 μM for REC for a duration of 48 hours. Cells acquired the senescence phenotype 7 days post treatment (determined by SA-beta-gal staining).
# Oncogene Induced Senescence (OIS) was induced by means of retroviral infection with H-RasG12 (pLNCX2) at 5% oxygen. Retroviruses were packaged, and infections were performed as described below.
# Replicative Induced Senescence (RIS) was induced by long-term passaging of the cells in tissue culture. Cells acquired the senescence phenotype after 40 population doublings.
# Primary target cells (IMR-90, BJ, […]) were plated in 24-well plates at 100,000 cells per well. Cells were transfected with different concentrations of DNAzymes (as depicted in Table 2, below) using Lipofectamine™ 2000 (Invitrogen) according to manufacturer instructions. The percentage of survival was determined based on quantification of remaining adherent cells using PrestoBlue® reagent (A13262, Life Technologies Ltd.) relative to Lipofectamine™ only control and compared to Scramble DNAzyme (Dz_Scramble) [Scramble Arm (Scr A) sequence: ATCTTCCTFggctagctacaacgaCGCCTCTCC, SEQ ID NO: 5, or Scramble catalytic core (Scr B) sequence: AGGAGAACAacagtaactggcgacGGGATGAGG, SEQ ID NO: 86] treated cells, 3-6 days following transfection.
row,Substance,Validated cytotoxicity
1,16 (DNA CCTCTTCTAGGCTAGCTACAACGAGCCAGAGCT; chemistry not given here) [compound 16],+
2,75 (DNA CTCCTACCAGGCTAGCTACAACGACCCCTTCCT; chemistry not given here) [compound 75],+
3,78 (DNA TGTCTCCTAGGCTAGCTACAACGACATCCCCTT; chemistry not given here) [compound 78],+
4,100 (DNA TCTGGGGTTCCGAGCCGGACGATTAGAGGTC; chemistry not given here) [compound 100],+
5,111 (DNA CATCCTTTAGGCTAGCTACAACGATTCTGGGGT; chemistry not given here) [compound 111],+
6,174 (DNA GCAAAGAAAGGCTAGCTACAACGAGACTATAGT; chemistry not given here) [compound 174],+
7,185 (DNA CAGATCATGGGCTAGCTACAACGAAGCAAAGAA; chemistry not given here) [compound 185],+
8,224 (DNA TGGGGAAATCCGAGCCGGACGAGGGGCTCAG; chemistry not given here) [compound 224],+
9,225 (DNA CTGGGGAAAGGCTAGCTACAACGATGGGGCTCA; chemistry not given here) [compound 225],+
10,236 (DNA CGTATACATCCGAGCCGGACGAGCTGGGGAA; chemistry not given here) [compound 236],+
11,237 (DNA CCGTATACAGGCTAGCTACAACGATGCTGGGGA; chemistry not given here) [compound 237],+
12,252 (DNA TACTCCCCAGGCTAGCTACAACGAATAGCCCGT; chemistry not given here) [compound 252],+
13,266 (DNA GTCTGTCTTCCGAGCCGGACGATGAATACTC; chemistry not given here) [compound 266],+
14,290 (DNA AGGGGAGGAGGCTAGCTACAACGATTGACGAGT; chemistry not given here) [compound 290],+
15,304 (DNA TTTGTTGGTCCGAGCCGGACGAAGGAAGGGG; chemistry not given here) [compound 304],+
16,317 (DNA TGGTTGCAGGGCTAGCTACAACGAAGCTTTGTT; chemistry not given here) [compound 317],+
17,352 (DNA GTTCTGACAGGCTAGCTACAACGAGGCGCCTGA; chemistry not given here) [compound 352],+
18,354 (DNA CGGTTCTGAGGCTAGCTACAACGAATGGCGCCT; chemistry not given here) [compound 354],+
19,364 (DNA TGACGGACAGGCTAGCTACAACGACCCCAGCCG; chemistry not given here) [compound 364],+
20,377 (DNA GGGTTCTGAGGCTAGCTACAACGAGGACATCCC; chemistry not given here) [compound 377],+
21,387 (DNA GCTGCCGCAGGCTAGCTACAACGAGGGTTCTGA; chemistry not given here) [compound 387],+
22,394 (DNA AGGCCTTGTCCGAGCCGGACGAGCCGCATGG; chemistry not given here) [compound 394],+
23,442 (DNA AGTCGCGGTCCGAGCCGGACGACAGCTGCTC; chemistry not given here) [compound 442],+
24,495 (DNA GAAGTTCCAGGCTAGCTACAACGACGCTCACGG; chemistry not given here) [compound 495],+
25,603 (DNA ATCCCGGCTCCGAGCCGGACGACGCCGGGGC; chemistry not given here) [compound 603],+
26,835 (DNA AGGGCTTCTCCGAGCCGGACGACTTGGAGAA; chemistry not given here) [compound 835],+
27,846 (DNA GTGGGCGGAGGCTAGCTACAACGATAGGGCTTC; chemistry not given here) [compound 846],+
28,857 (DNA GCAGGCTTTCCGAGCCGGACGATGTGGGCGG; chemistry not given here) [compound 857],+

row,Substance,Validated cytotoxicity
1,974 (DNA GGGTATGTAGGCTAGCTACAACGAATGAGGAGG; chemistry not given here) [compound 974],+
2,1003 (DNA GCCAGAGGTCCGAGCCGGACGAGGGGGGCAG; chemistry not given here) [compound 1003],+
3,1013 (DNA TAATTCTAAGGCTAGCTACAACGAGCCAGAGGC; chemistry not given here) [compound 1013],+
4,1089 (DNA TAAATAGTAGGCTAGCTACAACGATTCATAAAA; chemistry not given here) [compound 1089],+
5,1252 (DNA GGGGGTGAAGGCTAGCTACAACGATTCATAACC; chemistry not given here) [compound 1252],+
6,1417 (DNA GCTCAGCCTCCGAGCCGGACGAAGGCTGTGC; chemistry not given here) [compound 1417],+
7,1418 (DNA AGCTCAGCTCCGAGCCGGACGATAGGCTGTG; chemistry not given here) [compound 1418],+
8,1455 (DNA AGGGGGGTAGGCTAGCTACAACGACAAGAGCCA; chemistry not given here) [compound 1455],+
9,1467 (DNA TTCACAAGAGGCTAGCTACAACGAAGAGGGGGG; chemistry not given here) [compound 1467],+
10,1504 (DNA GGGGTGGTTCCGAGCCGGACGAGCTCCAGGA; chemistry not given here) [compound 1504],+
11,1524 (DNA GAGGGGCCAGGCTAGCTACAACGAGAGGGCAGG; chemistry not given here) [compound 1524],+
12,1582 (DNA CAGGGGAGTCCGAGCCGGACGAAAAGAGGGA; chemistry not given here) [compound 1582],+
13,1591 (DNA CAAAAGGTAGGCTAGCTACAACGAAGGGGAGCC; chemistry not given here) [compound 1591],+
14,1602 (DNA CTGGGGCTTCCGAGCCGGACGATCAAAAGGT; chemistry not given here) [compound 1602],+
15,1610 (DNA AAGGGTAGTCCGAGCCGGACGAGGGGCTCCT; chemistry not given here) [compound 1610],+
16,1641 (DNA AGAGGGGAAGGCTAGCTACAACGATGCAGAGCC; chemistry not given here) [compound 1641],+
17,1683 (DNA AGAGGGTATCCGAGCCGGACGAGAAGGGAAA; chemistry not given here) [compound 1683],+
18,1684 (DNA GAGAGGGTAGGCTAGCTACAACGATGAAGGGAA; chemistry not given here) [compound 1684],+
19,1719 (DNA GGGGTGGGAGGCTAGCTACAACGAAGGCACCTC; chemistry not given here) [compound 1719],+
20,1736 (DNA CCATTGAGTCCGAGCCGGACGAGGGGGTGGG; chemistry not given here) [compound 1736],+
21,1742 (DNA TCCAGTCCAGGCTAGCTACAACGATGAGCTGGG; chemistry not given here) [compound 1742],+
22,1786 (DNA GAGGTAGAAGGCTAGCTACAACGATAGGGTGCC; chemistry not given here) [compound 1786],+
23,1791 (DNA TGCCTGAGGGGCTAGCTACAACGAAGAACTAGG; chemistry not given here) [compound 1791],+
24,1800 (DNA TGCTTGAGTCCGAGCCGGACGAGCCTGAGGT; chemistry not given here) [compound 1800],+
25,1838 (DNA GGACCCTCAGGCTAGCTACAACGACCCCACAGC; chemistry not given here) [compound 1838],+
26,1851 (DNA GTGCCACCAGGCTAGCTACAACGAATGGGACCC; chemistry not given here) [compound 1851],+
27,1854 (DNA CCTGTGCCAGGCTAGCTACAACGACACATGGGA; chemistry not given here) [compound 1854],+

# — patent US11879140B2, “P21 mRNA targeting DNAzymes” (1E Therapeutics Ltd., priority 2020, dated 2024)
